From EP4635949A1 (Jiangsu NHWA Pharmaceutical Co., Ltd, priority 2022, dated 2024) come the findings set out here.

In one series the target is T1, OX1 receptor (Homo sapiens, UniProt O43613).
T1 construct: host or cells: CHO-K1
T1 sequence (O43613 1-425): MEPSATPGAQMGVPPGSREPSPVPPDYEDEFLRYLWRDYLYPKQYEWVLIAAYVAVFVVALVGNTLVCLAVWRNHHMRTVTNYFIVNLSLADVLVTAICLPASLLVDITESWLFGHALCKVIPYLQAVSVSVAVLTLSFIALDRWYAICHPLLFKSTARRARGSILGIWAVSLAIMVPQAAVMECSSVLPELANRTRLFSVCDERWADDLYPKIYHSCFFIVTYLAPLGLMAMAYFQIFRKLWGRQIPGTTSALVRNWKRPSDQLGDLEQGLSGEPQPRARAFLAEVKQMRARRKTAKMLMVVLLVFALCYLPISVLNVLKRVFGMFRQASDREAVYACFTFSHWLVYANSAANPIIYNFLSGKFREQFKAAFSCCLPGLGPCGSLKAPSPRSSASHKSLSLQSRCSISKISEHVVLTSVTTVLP
The series can be described thus: Orexin target function test (Cisbio HTRF IP-one), CHO-K1-OX1 cells, antagonism of EC80 Orexin A. In kind it is cell-based. The method, then: (§1) Using Cisbio HTRF IP-one kit to detect the changes in IP-one concentration of orexin receptor (OX1/OX2) signaling pathway by microplate reader, and calculating the IC50 value of the compound to evaluate the antagonistic effect of the compound on OX1 and OX2 receptors.
(§2) The cells were centrifuged at 1000 rpm for 5 minutes and the supernatant was discarded. 3 mL of PBS was added, and gently blown with a pipette to mix. After centrifugation at 1000 rpm for 5 minutes again, the supernatant was discarded. […] Based on the antagonistic effect values of the compound samples at different concentrations, the GraphPad Prism software was used to fit the orexin receptor antagonism curve of the compound samples and calculate the IC50.

Another series concerns the target T2, OX2 receptor (Homo sapiens, UniProt O43614).
T2 construct: host or cells: CHO-K1
T2 sequence (O43614 1-444): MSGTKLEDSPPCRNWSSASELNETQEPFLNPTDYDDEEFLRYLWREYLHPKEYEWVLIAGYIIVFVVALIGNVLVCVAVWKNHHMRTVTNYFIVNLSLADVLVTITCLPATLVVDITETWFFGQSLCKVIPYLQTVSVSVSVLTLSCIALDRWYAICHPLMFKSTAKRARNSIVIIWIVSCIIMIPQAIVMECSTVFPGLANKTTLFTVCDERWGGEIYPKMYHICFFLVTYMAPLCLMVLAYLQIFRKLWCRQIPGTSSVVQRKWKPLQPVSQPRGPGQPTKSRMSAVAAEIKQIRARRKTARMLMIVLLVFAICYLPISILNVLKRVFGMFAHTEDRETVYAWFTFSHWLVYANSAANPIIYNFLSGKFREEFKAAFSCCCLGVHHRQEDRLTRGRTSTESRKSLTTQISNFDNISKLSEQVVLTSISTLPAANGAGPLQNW
In words: Orexin target function test (Cisbio HTRF IP-one), CHO-K1-OX2 cells, antagonism of EC80 Orexin 2 receptor agonist. In kind it is cell-based. The method, then:
as §1, §2
A general note: TR-FRET usually uses a lanthanide donor and a delayed reading to cut background.

A short description of the next series: in vivo. To be noted: male, SD, rat, plasma.
Where [1] appears, read: CHO-K1-OX1 cells, IP-one, read-out: hOXIR IC50.
[2] abbreviates: CHO-K1-OX2 cells, IP-one, read-out: hOX2R IC50.
The mark [3] stands for this setting: ratio of OX1R IC50 to OX2R IC50.

pIC50: −log10 of the molar value. Read-outs that look alike come from different tables or passages of the source.

`COc1ccc(C(=O)N2C[C@H]3CC(c4nc(Cl)cnc4OC)=C[C@H]3C2)c(-n2nccn2)c1` (relative stereo) [Compound 54]: the pIC50 at OX1 receptor (setting [1]) is 5.59; at OX2 receptor (setting [2]), 7.66. At OX2 receptor (setting [3]), the Selectivity stood at 118.
On to `CCc1c(C)nc(C2=CC3CN(C(=O)c4c(F)cccc4-n4nccn4)CC3C2)nc1C` (centres unmarked) [Compound 11, (5-(5-ethyl-4,6-dimethylpyrimidin-2-yl)-3,3a,4,6a-tetrahydrocyclopenta[c]pyrrol-2(1H)-yl)(2-fluoro-6-(2H-1,2,3-triazol-2-yl)phenyl)methanone], for which the pIC50 on OX1 receptor (setting [1]) was 5.71; at OX2 receptor (setting [2]) it was 7.57. The Selectivity at OX2 receptor (setting [3]) was 72.
On to `Cc1nc(C2=CC3CN(C(=O)c4c(F)cccc4-n4nccn4)CC3C2)nc2c1CCCC2` (centres unmarked) [Compound 14, (2-fluoro-6-(2H-1,2,3-triazol-2-yl)phenyl)(5-(4-methyl-5,6,7,8-tetrahydroquinazolin-2-yl)-3,3a, 4,6a-tetrahydrocyclopenta[c]pyrrol-2(1H)-yl)methanone], for which the values for the pIC50 on OX1 receptor (setting [1]) and on OX2 receptor (setting [2]) were 5.56 and 7.62, respectively. Also, the Selectivity on OX2 receptor (setting [3]) turned out to be 114.
The corresponding values for `Cc1nc(C2=CC3CN(C(=O)c4c(F)cccc4-n4nccn4)CC3C2)nc2c1COCC2` (centres unmarked) [Compound 16, (2-fluoro-6-(2H-1,2,3-triazol-2-yl)phenyl)(5-(4-methyl-7,8-dihydro-5H-pyrano[4,3-d]pyrimidin-2-yl)-3,3a,4,6a-tetrahydrocyclopenta[c]pyrrol-2(1H)-yl)methanone] are 5.73, 7.70 and 94.
Regarding `Cc1nc(C2=CC3CN(C(=O)c4c(F)cccc4-n4nccn4)CC3C2)nc2c1CCC2` (centres unmarked) [Compound 17, (2-fluoro-6-(2H-1,2,3-triazol-2-yl)phenyl)(5-(4-methyl-6,7-dihydro-5H-cyclopenta[d]pyrimidin-2-yl)-3,3a,4,6a-tetrahydrocyclopenta[c]pyrrol-2(1H)-yl)methanone], the figures for the pIC50 at OX1 receptor and on OX2 receptor were 5.54 and 7.66, respectively. Also, the Selectivity at OX2 receptor (setting [3]) amounted to 131.
For the molecule `Cc1nc(C2=CC3CN(C(=O)c4c(F)cccc4-n4nccn4)CC3C2)nc2ccoc12` (centres unmarked) [Compound 18, (2-fluoro-6-(2H-1,2,3-triazol-2-yl)phenyl)(5-(4-methylfuro[3,2-d]pyrimidin-2-yl)-3,3a,4,6a-tetrahydrocyclopenta[c]pyrrol-2(1H)-yl)methanone], the pIC50 at OX1 receptor was 5.64; at OX2 receptor, 7.63. For the same molecule, at OX2 receptor (setting [3]), the Selectivity came to 99.
`Cc1nc(C2=CC3CN(C(=O)c4c(F)cccc4-n4nccn4)CC3C2)nc2c1OCC2` (centres unmarked) [Compound 19, (2-fluoro-6-(2H-1,2,3-triazol-2-yl)phenyl)(5-(4-methyl-6,7-dihydrofuro[3,2-d]pyrimidin-2-yl)-3,3a,4,6a-tetrahydrocyclopenta[c]pyrrol-2(1H)-yl)methanone]: the values for the pIC50 on OX1 receptor (setting [1]) and on OX2 receptor (setting [2]) were 5.61 and 7.74, respectively. For the same molecule, the Selectivity on OX2 receptor (setting [3]) is given as 138.
As to `COc1nc(C2=CC3CN(C(=O)c4ccccc4-n4nccn4)CC3C2)nc(C)c1F` (centres unmarked) [Compound 27, (2-(2H-1,2,3-triazol-2-yl)phenyl)(5-(5-fluoro-4-methoxy-6-methylpyrimidin-2-yl)-3,3a,4,6a-tetrahydrocyclopenta[c]pyrrol-2(1H)-yl)methanone], the pIC50 on OX1 receptor (setting [1]) was 5.77; at OX2 receptor (setting [2]), 7.70. In addition, the Selectivity at OX2 receptor (setting [3]) is given as 84.
`Cc1nc(C2=CC3CN(C(=O)c4c(F)cccc4-c4cc[nH]n4)CC3C2)nc(C)c1F` (centres unmarked) [Compound 29, (5-(5-fluoro-4,6-dimethylpyrimidin-2-yl)-3,3a,4,6a-tetrahydrocyclopenta[c]pyrrol-2(1H)-yl)(2-fluoro-6-(1H-pyrazol-3-yl)phenyl)methanone]: the figures for the pIC50 on OX1 receptor (setting [1]) and on OX2 receptor (setting [2]) were 5.89 and 7.70, respectively. The Selectivity at OX2 receptor (setting [3]) came to 64.
Consider `[2H]C([2H])([2H])c1nc(C2=CC3CN(C(=O)c4ccc(F)cc4-n4nccn4)CC3C2)nc(C([2H])([2H])[2H])c1F` (centres unmarked) [Compound 30, (4-fluoro-2-(2H-1,2,3-triazol-2-yl)phenyl)(5-(5-fluoro-4,6-bis(methyl-d3)pyrimidin-2-yl)-3,3a,4,6a-tetrahydrocyclopenta[c]pyrrol-2(1H)-yl)methanone], for which the pIC50 against OX1 receptor was 5.41; at OX2 receptor, 7.68. For the same molecule, the Selectivity on OX2 receptor (setting [3]) came to 186.
The molecule `[2H]C([2H])([2H])Oc1cc(-n2nccn2)c(C(=O)N2CC3C=C(c4nc(C)c(F)c(C)n4)CC3C2)cn1` (centres unmarked) [Compound 34, (5-(5-fluoro-4,6-dimethylpyrimidin-2-yl)-3,3a,4,6a-tetrahydrocyclopenta[c]pyrrol-2(1H)-yl)(6-(methoxy-d3)-4-(2H-1,2,3-triazol-2-yl)pyridin-3-yl)methanone] had a pIC50 at OX1 receptor of 5.30. On OX2 receptor, this molecule gave a pIC50 of 7.62 and a Selectivity of 208.
The corresponding values for `[2H]C([2H])([2H])Oc1ccc(C(=O)N2CC3C=C(c4nc(C)c(F)c(C)n4)CC3C2)c(-n2nccn2)c1` (centres unmarked) [Compound 36, (5-(5-fluoro-4,6-dimethylpyrimidin-2-yl)-3,3a,4,6a-tetrahydrocyclopenta[c]pyrrol-2(1H)-yl)(4-(methoxy-d3)-2-(2H-1,2,3-triazol-2-yl)phenyl)methanone] are 5.51, 7.74 and 172.
Regarding `Cc1nc(C2=CC3CN(C(=O)c4c(F)cccc4-n4nccn4)CC3C2)nc(C(C)(C)O)c1F` (centres unmarked) [Compound 37, (5-(5-fluoro-4-(2-hydroxypropan-2-yl)-6-methylpyrimidin-2-yl)-3,3a,4,6a-tetrahydrocyclopenta[c]pyrrol-2(1H)-yl)(2-fluoro-6-(2H-1,2,3-triazol-2-yl)phenyl)methanone], in the series “in vivo” (iv, 1 mg/kg), the AUC(0-t) stood at 626 ng·h/mL and the Cmax is 980 ng/mL. In “in vivo” (po, 30 mg/kg), this molecule gave an AUC(0-t) of 16800 ng·h/mL, a Cmax of 9240 ng/mL and a bioavailability of 89.3%.
As to `Cc1nc(C2=CC3CN(C(=O)c4c(F)cccc4-n4nccn4)CC3C2)nc(C)c1CF` (centres unmarked) [Compound 38, (2-fluoro-6-(2H-1,2,3-triazol-2-yl)phenyl)(5-(5-(fluoromethyl)-4,6-dimethylpyrimidin-2-yl)-3,3a,4,6a-tetrahydrocyclopenta[c]pyrrol-2(1H)-yl)methanone], the pIC50 was 5.74 at OX1 receptor (setting [1]) and 7.66 at OX2 receptor (setting [2]). For the same molecule, on OX2 receptor (setting [3]), the Selectivity was found to be 82.
Regarding `COc1ncc(C)nc1C1=CC2CN(C(=O)c3c(F)cccc3-c3ncccn3)CC2C1` (centres unmarked) [Compound 43, (2-fluoro-6-(pyrimidin-2-yl)phenyl)(5-(3-methoxy-6-methylpyrazin-2-yl)-3,3a,4,6a-tetrahydrocyclopenta[c]pyrrol-2(1H)-yl)methanone], the values for the pIC50 at OX1 receptor (setting [1]) and on OX2 receptor (setting [2]) were 5.68 and 7.55, respectively. Also, the Selectivity at OX2 receptor (setting [3]) amounted to 75.
On to `COc1cnc(OC)c(C2=CC3CN(C(=O)c4ccc(F)cc4-n4nccn4)CC3C2)n1` (centres unmarked) [Compound 50, [5-(3,6-dimethoxypyrazin-2-yl)-3,3a,4,6a-tetrahydrocyclopenta[c]pyrrol-2(1H)-yl][4-fluoro-2-(2H-1,2,3-triazol-2-yl)phenyl]methanone], for which the pIC50 at OX1 receptor is 5.44; at OX2 receptor, 7.57. The Selectivity on OX2 receptor (setting [3]) was found to be 134.
In the case of `COc1ccc(C(=O)N2CC3C=C(c4nc(OC)cnc4OC)CC3C2)c(-n2nccn2)c1` (centres unmarked) [Compound 53, [5-(3,6-dimethoxypyrazin-2-yl)-3,3a,4,6a-tetrahydrocyclopenta[c]pyrrol-2(1H)-yl][4-methoxy-2-(2H-1,2,3-triazol-2-yl)phenyl]methanone], the pIC50 on OX1 receptor (setting [1]) was 5.54; at OX2 receptor (setting [2]) it was 7.49. The Selectivity on OX2 receptor (setting [3]) is listed as 89.
In the case of `COc1ncc(C2CC2)nc1C1=CC2CN(C(=O)c3ccc(F)cc3-n3nccn3)CC2C1` (centres unmarked) [Compound 55, [5-(6-cyclopropyl-3-methoxypyrazin-2-yl)-3,3a,4,6a-tetrahydrocyclopenta[c]pyrrol-2(1H)-yl][4-fluoro-2-(2H-1,2,3-triazol-2-yl)phenyl]methanone], the pIC50 at OX1 receptor was 5.72; on OX2 receptor it was 7.55. The Selectivity on OX2 receptor (setting [3]) stood at 67.

Broadly, the pIC50 is the negative decadic logarithm of the IC50, by convention in mol/L. The term AUC(0-t) denotes the area under the concentration-time curve up to a stated or last time point. Low values mean low exposure, high ones high exposure. As a reminder, the Cmax is the peak of the concentration-time curve. For orientation: bioavailability means dose-corrected exposure relative to a reference, in per cent. Read a high bioavailability as good availability.
